In US9944968B2, “Control of protein glycosylation by culture medium supplementation and cell culture process parameters” (Biogen MA Inc., priority 2013, dated 2018):

Experiments:
[1] = test system: immunoadhesin-expressing CHO cells; assay: Fed-batch shake flask culture of immunoadhesin-expressing CHO cells: N-glycan (HILIC-UPLC) and ProG titer; format: cell-based, Chinese hamster; settings: for Titer: Day 14 harvest; for % afucose / % charged / % galactosylation: fed-batch shake flask; for % afucose levels: addition to fed-batch shake flask cultures
Protocol: FIG. 3A and FIG. 3B. Effect of hypoxanthine and guanine on the growth (FIG. 3A) and viability (FIG. 3B) of fed-batch shake flask cultures of immunoadhesin-expressing CHO cells. Copper (II) sulfate was delivered as part of the 5×-concentrated DMEM/F12 feed media at a concentration of 1 mM in the feed media. The Day 14 final concentration of CuSO4 in the culture was 0.2 mM due to 20% feeding. Hypoxanthine was delivered as a 1 mM bolus from a 200 mM stock solution on Day 6 after the temperature shift. Guanine was delivered as a 0.2 mM bolus from a 100 mM stock solution on Day 6 after the temperature shift.
FIG. 4A and FIG. 4B. Effect of copper (II) sulfate on the growth (FIG. 4A) and viability (FIG. 4B) of fed-batch shake flask cultures of immunoadhesin-expressing CHO cells. Copper (II) sulfate was delivered as part of the 5×-concentrated DMEM/F12 feed media at a concentration of 1 mM in the feed media. The Day 14 final concentration of CuSO4 in the culture was 0.2 mM, due to 20% feeding. Alternatively, copper (II) sulfate was delivered as 0.2 mM and 0.5 mM boli on Day 6 from a stock solution.
Cell culture methods: Cells were thawed and maintained as in a previous report (Kshirsagar, et al. 2012 Biotechnol Bioeng, Huang, et al. Biotechnology Progress 26(5):1400-1410 (2010)). Basal medium for thaw and passing was the same as in previous reports (Kshirsagar/Huang). Briefly, cells were thawed and maintained in 3 L shake flasks (Corning Life Sciences, Corning, N.Y.) with 1 L working volumes and were passaged every 2-3 days. For maintenance cultures the incubator was controlled at 37° C. and 5% CO2. […]
(§1) Copper (II) sulfate, hypoxanthine, guanine, glucosamine, and galactose were delivered to two different immunoadhesin-expressing CHO cell cultures either as part of the feed media or as boli from distinct stock solutions. The typical culture process is a 14-day process that consists of a growth phase from Day 0 to Day 6 at 37° C. and a protein production phase from Day 6 to Day 14 at 30° C.

[2] = test system: immunoadhesin-expressing CHO cells; assay: 3 L fed-batch bioreactor culture of immunoadhesin-expressing CHO cells: N-glycan (HILIC-UPLC), TSA and ProG titer; format: cell-based, Chinese hamster
Protocol: FIG. 5A and FIG. 5B. […] Copper (II) sulfate was delivered as part of the 5×-concentrated DMEM/F12 feed media at a concentration of 1 mM in the feed media. The Day 14 final concentration of CuSO4 in the culture was 0.25 mM, due to 25% feeding. In the CuSO4, glucosamine, and galactose combination conditions, copper (II) sulfate was delivered as part of the 5×-concentrated DMEM/F12 feed media at a concentration of 1 mM in the feed media. The Day 14 final concentration of CuSO4 in the culture was 0.22 mM, due to 22% feeding. Glucosamine was delivered as two 10 mM boli, each on Day 6 and Day 8. Galactose was delivered as part of the 5×-concentrated DMEM/F12 feed media from Day 6-14 at a concentration of 20 g/L in the feed. The Day 14 final concentration of galactose was 2.4 g/L, due to 12% feeding from Day 6-14. In the CuSO4 and hypoxanthine condition, copper (II) sulfate and hypoxanthine were delivered as part of the 5×-concentrated DMEM/F12 feed media at a concentration of 1 mM and 3 mM, respectively, in the feed media. The Day 14 final concentrations of CuSO4 and hypoxanthine in the culture were 0.23 mM and 0.7 mM, due to 23% feeding.
Bioreactor culture conditions: Fed batch cultures were performed in 5 L glass Applikon vessels using Finesse TruBio DV controllers (Finesse Solutions, San Jose, Calif.) with an initial working volume between 2-2.5 L. Bioreactors were seeded at constant seed density of 4×10^5 cells/ml. Concentrated feed medium was delivered on days 3, 5, and every day or every other day following through harvest. Temperature was maintained at 35° C. or 36° C. and pH was controlled at 7.1+/−0.2 by the addition of either 1 M sodium carbonate or carbon dioxide. Dissolved oxygen was maintained at 30%-40% by air and oxygen sparge using a drilled hole sparger. Agitation was maintained between 200-400 RPM throughout the culture to limit total gas flow, while an overlay was maintained between 0.005 and 0.04 vvm.
(§2) Offline analysis: Samples were taken on most days and analyzed with a variety of equipment. Cell density and viability were measured using the standard technique of trypan blue exclusion using a Cedex (Roche Innovatis AG, Germany). Cell viability and growth rate of the various cultures were measured during the culture time course at specific days post-inoculation.
as §1

CHO-043 cells = assay: CHO-043 fed-batch shake flask culture: N-glycan (HILIC-UPLC), sialylation and ProG titer of the expressed immunoadhesin; format: cell-based, Chinese hamster
Protocol: FIG. 1A and FIG. 1B. Effect of glucosamine and galactose on the growth (FIG. 1A) and viability (FIG. 1B) of fed-batch shake flask cultures. Glucosamine was delivered as two 10 mM boli, each on Day 2 and Day 4 in both the glucosamine alone condition and the glucosamine/galactose combination condition. […] The Day 14 final concentration of galactose was 6 g/L, due to 30% feeding. Cell line: The cell line used in this study produced a growth factor receptor immunoadhesin polypeptide. The cell line was constructed using DG44 adapted to grow in serum-free medium (Prentice, 2007). The cell line DUXB11 was also used in this study. Cell culture methods: Cells were thawed and maintained as in a previous report ([…] al. 2012 Biotechnol Bioeng, Huang, et al. Biotechnology Progress 26(5):1400-1410 (2010)). Basal medium for thaw and passing was the same as in previous reports ([…]). Briefly, cells were thawed and maintained in 3 L shake flasks (Corning Life Sciences, Corning, N.Y.) with 1 L working volumes and were passaged every 2-3 days. For maintenance cultures the incubator was controlled at 37° C. and 5% CO2. Offline analysis: Samples were taken on most days and analyzed with a variety of equipment. Cell density and viability were measured using the standard technique of trypan blue exclusion using a Cedex (Roche Innovatis AG, Germany). Cell viability and growth rate of the various cultures were measured during the culture time course at specific days post-inoculation. […] The typical culture process is a 14-day process that consists of a growth phase from Day 0 to Day 6 at 37° C. and a protein production phase from Day 6 to Day 14 at 30° C. [table]

CHO-602 = CHO-602 fed-batch shake flask culture: N-glycan (HILIC-UPLC), sialylation and ProG titer; format: cell-based, Chinese hamster; settings: for % NGNA / % afucose / TSA (mol/chain): Day 12, GlcN 10 mM bolus D6, combination: plus galactose 20 g/L in feed (4 g/L final)
Protocol: FIG. 2A and FIG. 2B. Effect of glucosamine and galactose on the growth (FIG. 2A) and viability (FIG. 2B) of fed-batch shake flask cultures of immunoadhesin-expressing CHO cells. Glucosamine was delivered as 10 mM boli on Day 6 for the 10 mM conditions and again on Day 8 for the 20 mM condition. In the glucosamine and galactose combination conditions, galactose was delivered as part of the 5×-concentrated DMEM/F12 feed media at a concentration of 20 g/L in the feed. The Day 14 final concentration of galactose was 4 g/L, due to 20% feeding.
FIG. 6A and FIG. 6B. Effect of copper (II) sulfate and Hypoxanthine-Thymidine (HT) supplement on the growth (FIG. 6A) and viability (FIG. 6B) of immunoadhesin-expressing CHO cells in fed-batch shake flasks. […] Copper (II) sulfate, hypoxanthine, and thymidine were delivered as part of the 5×-concentrated DMEM/F12 feed media at a concentration of 1 mM, 1 mM, and 0.16 mM respectively in the feed media for the HT Low condition and 1 mM, 3 mM, and 0.5 mM respectively in the feed media for the HT High condition. The Day 14 final concentration of CuSO4, hypoxanthine, and thymidine in the culture was 0.30 mM, 0.30 mM, and 0.05 mM respectively for the HT Low condition and 0.30 mM, 1 mM, and 0.16 mM respectively for the HT High condition due to 30% feeding.
Cell culture methods: Cells were thawed and maintained as in a previous report (Kshirsagar, et al. 2012 Biotechnol Bioeng, Huang, et al. Biotechnology Progress 26(5):1400-1410 (2010)). Basal medium for thaw and passing was the same as in previous reports (Kshirsagar/Huang). Briefly, cells were thawed and maintained in 3 L shake flasks (Corning Life Sciences, Corning, N.Y.) with 1 L working volumes and were passaged every 2-3 days. For maintenance cultures the incubator was controlled at 37° C. and 5% CO2.
as §2, §1

FcγRIIIa = assay: % FcγRIIIa binding of purified product relative to Enbrel innovator material; settings: for % FcγRIIIa: Day 14 product, ProA and HIC purified, relative to Enbrel innovator material, hypoxanthine 1 mM or guanine 0.2 mM bolus D6; for levels of FcγRIIIa binding: addition to fed-batch shake flask cultures
[3] = feed supp. w/1 mM CuSO4 (0.2 mM final Day 14), Day 12
[4] = Day 14, CuSO4 1 mM in feed (0.25 mM final; 0.22 mM in combination), GlcN two 10 mM boli D6, D8, galactose 2.4 g/L final
[5] = Day 12, GlcN two 10 mM boli D2, D4, combination: plus galactose 20 g/L in feed (6 g/L final)
[6] = Day 12, GlcN two 10 mM boli D2, D4, combination: plus galactose 20 g/L in feed (6 g/L final), listed as glucosamine
[7] = ExptA, ProG, hypoxanthine 1 mM or guanine 0.2 mM bolus D6
[8] = ExptA, Day 14, hypoxanthine 1 mM or guanine 0.2 mM bolus D6
[9] = ExptB, ProG, hypoxanthine 1 mM or guanine 0.2 mM bolus D6
[10] = ExptB, Day 14, hypoxanthine 1 mM or guanine 0.2 mM bolus D6

With `O=S(=O)([O-])[O-].[Cu+2]` [CuSO4, copper (II) sulfate] the “Titer” value ([1]; 0.2 mM CuSO4 D6 bolus) was 1.9 g/L, the “% afucose” value ([1]; 0.2 mM CuSO4 D6 bolus, Day 12) was 8.2% and the “% charged” value ([1]; 0.2 mM CuSO4 D6 bolus, Day 12) was 42.1%. The “% galactosylation” value ([1]; 0.2 mM CuSO4 D6 bolus, Day 12) was 70.3%, the “Titer” value ([1]; 0.5 mM CuSO4 D6 bolus) was 1.9 g/L and the “% afucose” value ([1]; 0.5 mM CuSO4 D6 bolus, Day 12) was 8.2%. The “% charged” value ([1]; 0.5 mM CuSO4 D6 bolus, Day 12) was 42.4%, the “% galactosylation” value ([1]; 0.5 mM CuSO4 D6 bolus, Day 12) was 68.5% and the “% afucose, % galactosylation, and % charged levels of N-linked glycosylation” value ([1]; copper (II) sulfate alone, shake flask) was “toward values associated with a comparator polypeptide”. The “Titer” value ([1]; feed supp. w/1 mM CuSO4 (0.2 mM final Day 14)) was 1.8 g/L, the “% afucose” value [1, 3] was 8.4% and the “% charged” value [1, 3] was 43.7%. For the same molecule, the “% galactosylation” value [1, 3] was 62.7%, the “% NGNA” value [2, 4] was 0.7% and the “% afucose” value [2, 4] was 7.1%. The “% charged” value [2, 4] was 41.9%, the “% galact.” value [2, 4] was 65.4% and the “% α-gal” value [2, 4] was 0.4%. For the same molecule, the “TSA (mol/chain)” value [2, 4] was 13.5 mol/chain and the “Titer” value ([2]; Day 14 harvest, CuSO4 1 mM in feed, combination with GlcN two 10 mM boli and galactose 2.4 g/L final) was 2.0 g/L.
In the case of `N[C@H]1C(O)O[C@H](CO)[C@@H](O)[C@@H]1O` (some centres unmarked) [GlcN, glucosamine], the “% NGNA” value (CHO-043 cells; [5]) was 3.8%, the “% afucose” value (CHO-043 cells; [5]) was 1.7% and the “% α-gal” value (CHO-043 cells; [5]) was 2.4%. The “TSA (mol/chain)” value (CHO-043 cells; [5]) was 6.6 mol/chain, the “% α-gal” value (CHO-043 cells; [6]) was “reduced” and the “TSA (mol/chain)” value (CHO-043 cells; [6]) was 6 mol/chain. For the same molecule, the “Titer” value (CHO-043 cells; Day 12 harvest, ProG, GlcN two 10 mM boli D2, D4, combination: plus galactose (6 g/L final)) was 1.8 g/L, the “% NGNA” value (CHO-602) was 1.3% and the “% afucose” value (CHO-602) was 8.9%. The “TSA (mol/chain)” value (CHO-602) was 11.1 mol/chain, the “% NGNA” value (CHO-602; listed as glucosamine) was “little effect” and the “% afucose” value (CHO-602; listed as glucosamine) was “little effect”. For the same molecule, the “TSA (mol/chain)” value (CHO-602; listed as glucosamine) was “reduce sialylation” and the “Titer” value (CHO-602; Day 14 harvest, ProG, GlcN 10 mM bolus D6, combination: plus galactose (4 g/L final)) was 1.4 g/L.
`Nc1nc2nc[nH]c2c(=O)[nH]1` [Guanine, guanine] was tested, and the “Titer” value [1, 7] was 1.5 g/L, the “% afucose” value [1, 8] was 10.5% and the “Titer” value [1, 9] was 1.6 g/L. For the same molecule, the “% afucose” value [1, 10] was 10.2%, the “% afucose levels” value [1] was “no change” and the “% FcγRIIIa” value (FcγRIIIa; ExptA) was 92%. For the same molecule, the “% FcγRIIIa” value (FcγRIIIa; ExptB) was 121% and the “levels of FcγRIIIa binding” value (FcγRIIIa) was “within the range of a comparator polypeptide”.
In the case of `O=c1[nH]cnc2nc[nH]c12` [Hypoxanthine, hypoxanthine], the “Titer” value [1, 7] was 1.7 g/L, the “% afucose” value [1, 8] was 9.5% and the “Titer” value [1, 9] was 1.6 g/L. For the same molecule, the “% afucose” value [1, 10] was 8.3%, the “% afucose levels” value [1] was “no change” and the “% FcγRIIIa” value (FcγRIIIa; ExptA) was 85%. The “% FcγRIIIa” value (FcγRIIIa; ExptB) was 122% and the “levels of FcγRIIIa binding” value (FcγRIIIa) was “within the range of a comparator polypeptide”.
